Experimental data: patent publication EP1171107B1, “USE OF A PHARMACEUTICAL COMPOSITION IN THE MANUFACTURE OF A MEDICAMENT FOR THE TREATMENT OF PATHOLOGICAL CONDITIONS OF THE EYE CAUSED BY BACTERIA, VIRUSES, FUNGI, YEASTS AND PROTOZOA” (Dr. GERHARD MANN chem.-pharm. Fabrik GmbH, priority 1999, dated 2000)

How the values were obtained:
Type in all cases: cell-based
E.coli [1] = experiment: Quantitative germ count (re-isolation, surface method) after inoculating the test preparation; conditions: Ausgangskeimzahl 2,7 x 10^5 KBE/ml
H.influenzae = experiment: as above; conditions: Ausgangskeimzahl 2,8 x 10^5 KBE/ml
Outline: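 Surviving germs were counted by the surface method: an aliquot was spiral-plated on Kochblut-Agar and incubated at 33±2°C for max. 4 Tage, giving re-isolated counts in KBE/ml with a detection limit of 100 KBE/ml. Initial germ counts were also set by spiral-plater surface plating. The H. influenzae strain was pretested biochemically for identity and purity.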

S.aureus [2] = experiment: as above; conditions: Ausgangskeimzahl 2,6 x 10^5 KBE/ml
Outline: (§1)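 Test preparations (5 ml) inoculated with ca. 10^5 CFU/ml of each strain, one tube per time point. After 2, 6, 8, 24, 32, 48 and 72 h, cells pelleted, washed and resuspended in NaCl-peptone buffer, then spiral-plated on Caso agar and incubated at 33±2 °C up to 4 days. Detection limit 100 CFU/ml.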

Sc. pneumoniae [3] = experiment: as above; conditions: Ausgangskeimzahl 3,7 x 10^5 KBE/ml
Outline: as §1

P.aeruginosa [4] = experiment: as above; conditions: Ausgangskeimzahl 2,7 x 10^5 KBE/ml
Outline: as §1

S.epidermidis [5] = experiment: as above; conditions: Ausgangskeimzahl 2,1 x 10^5 KBE/ml
Outline: as §1

E.coli [6] = experiment: Qualitative examination: enrichment of the inoculated test preparation in broth
Outline: (§2)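 Strains from lyophilisate, subcultured on Caso or cooked-blood agar, identity checked biochemically. Each substance spiked at ca. 10^5 CFU/ml; one separate tube per time point (2, 6, 8, 24, 32, 48, 72 h). Washed twice by centrifugation, then enriched in broth at 33±2°C, max 4 days.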

S.aureus [7] = experiment: as above
Outline: as §2

S.epidermidis [8] = experiment: as above
Outline: as §2

Sc. pneumoniae [9] = experiment: as above
Outline: as §2

P.aeruginosa [10] = experiment: as above
Outline: as §2

In the case of CCCCCCCCCCCC[N+](C)(C)Cc1ccccc1 [Benzalkoniumchlorid 0,005 Gew.-%, Benzododeciniumchlorid], the “Ergebnis der Reisolierung (in KBE/ml)” value (E.coli [1]; 2 h after inoculation) is reported as less than 100 KBE/ml, the “Ergebnis der Reisolierung (in KBE/ml)” value (E.coli [1]; 4 h after inoculation) is reported as less than 100 KBE/ml and the “Ergebnis der Reisolierung (in KBE/ml)” value (E.coli [1]; 6 h after inoculation) is reported as less than 100 KBE/ml. The “Ergebnis der Reisolierung (in KBE/ml)” value (E.coli [1]; 8 h after inoculation) was less than 100 KBE/ml, the “Ergebnis der Reisolierung (in KBE/ml)” value (E.coli [1]; 24 h after inoculation) was less than 100 KBE/ml and the “Ergebnis der Reisolierung (in KBE/ml)” value (E.coli [1]; 32 h after inoculation) was less than 100 KBE/ml. The “Ergebnis der Reisolierung (in KBE/ml)” value (E.coli [1]; 48 h after inoculation) was less than 100 KBE/ml, the “Ergebnis der Reisolierung (in KBE/ml)” value (E.coli [1]; 72 h after inoculation) was less than 100 KBE/ml and the “Ergebnis der Reisolierung (in KBE/ml)” value (H.influenzae; 2 h after inoculation) was less than 100 KBE/ml. For the same molecule, the “Ergebnis der Reisolierung (in KBE/ml)” value (H.influenzae; 4 h after inoculation) was less than 100 KBE/ml, the “Ergebnis der Reisolierung (in KBE/ml)” value (H.influenzae; 6 h after inoculation) was less than 100 KBE/ml and the “Ergebnis der Reisolierung (in KBE/ml)” value (H.influenzae; 8 h after inoculation) was less than 100 KBE/ml. For the same molecule, the “Ergebnis der Reisolierung (in KBE/ml)” value (H.influenzae; 24 h after inoculation) was less than 100 KBE/ml, the “Ergebnis der Reisolierung (in KBE/ml)” value (H.influenzae; 32 h after inoculation) was less than 100 KBE/ml and the “Ergebnis der Reisolierung (in KBE/ml)” value (H.influenzae; 48 h after inoculation) was less than 100 KBE/ml. For the same molecule, the “Ergebnis der Reisolierung (in KBE/ml)” value (H.influenzae; 72 h after inoculation) was less than 100 KBE/ml, the “Ergebnis der Reisolierung (in KBE/ml)” value (S.aureus [2]; 2 h after inoculation) was less than 100 KBE/ml and the “Ergebnis der Reisolierung (in KBE/ml)” value (S.aureus [2]; 4 h after inoculation) was less than 100 KBE/ml. The “Ergebnis der Reisolierung (in KBE/ml)” value (S.aureus [2]; 6 h after inoculation) was less than 100 KBE/ml, the “Ergebnis der Reisolierung (in KBE/ml)” value (S.aureus [2]; 8 h after inoculation) was less than 100 KBE/ml and the “Ergebnis der Reisolierung (in KBE/ml)” value (S.aureus [2]; 24 h after inoculation) was less than 100 KBE/ml. For the same molecule, the “Ergebnis der Reisolierung (in KBE/ml)” value (S.aureus [2]; 32 h after inoculation) was less than 100 KBE/ml, the “Ergebnis der Reisolierung (in KBE/ml)” value (S.aureus [2]; 48 h after inoculation) was less than 100 KBE/ml and the “Ergebnis der Reisolierung (in KBE/ml)” value (S.aureus [2]; 72 h after inoculation) was less than 100 KBE/ml. For the same molecule, the “Ergebnis der Reisolierung (in KBE/ml)” value (Sc. pneumoniae [3]; 2 h after inoculation) was less than 100 KBE/ml, the “Ergebnis der Reisolierung (in KBE/ml)” value (Sc. pneumoniae [3]; 4 h after inoculation) was less than 100 KBE/ml and the “Ergebnis der Reisolierung (in KBE/ml)” value (Sc. pneumoniae [3]; 6 h after inoculation) was less than 100 KBE/ml. The “Ergebnis der Reisolierung (in KBE/ml)” value (Sc. pneumoniae [3]; 8 h after inoculation) was less than 100 KBE/ml, the “Ergebnis der Reisolierung (in KBE/ml)” value (Sc. pneumoniae [3]; 24 h after inoculation) was less than 100 KBE/ml and the “Ergebnis der Reisolierung (in KBE/ml)” value (Sc. pneumoniae [3]; 32 h after inoculation) was less than 100 KBE/ml. The “Ergebnis der Reisolierung (in KBE/ml)” value (Sc. pneumoniae [3]; 48 h after inoculation) was less than 100 KBE/ml, the “Ergebnis der Reisolierung (in KBE/ml)” value (Sc. pneumoniae [3]; 72 h after inoculation) was less than 100 KBE/ml and the “Ergebnis der Reisolierung (in KBE/ml)” value (P.aeruginosa [4]; 2 h after inoculation) was less than 100 KBE/ml. For the same molecule, the “Ergebnis der Reisolierung (in KBE/ml)” value (P.aeruginosa [4]; 4 h after inoculation) was less than 100 KBE/ml, the “Ergebnis der Reisolierung (in KBE/ml)” value (P.aeruginosa [4]; 6 h after inoculation) was less than 100 KBE/ml and the “Ergebnis der Reisolierung (in KBE/ml)” value (P.aeruginosa [4]; 8 h after inoculation) was less than 100 KBE/ml. For the same molecule, the “Ergebnis der Reisolierung (in KBE/ml)” value (P.aeruginosa [4]; 24 h after inoculation) was less than 100 KBE/ml, the “Ergebnis der Reisolierung (in KBE/ml)” value (P.aeruginosa [4]; 32 h after inoculation) was less than 100 KBE/ml and the “Ergebnis der Reisolierung (in KBE/ml)” value (P.aeruginosa [4]; 48 h after inoculation) was less than 100 KBE/ml. The “Ergebnis der Reisolierung (in KBE/ml)” value (P.aeruginosa [4]; 72 h after inoculation) was less than 100 KBE/ml, the “Ergebnis der Reisolierung (in KBE/ml)” value (S.epidermidis [5]; 2 h after inoculation) was less than 100 KBE/ml and the “Ergebnis der Reisolierung (in KBE/ml)” value (S.epidermidis [5]; 4 h after inoculation) was less than 100 KBE/ml. The “Ergebnis der Reisolierung (in KBE/ml)” value (S.epidermidis [5]; 6 h after inoculation) was less than 100 KBE/ml, the “Ergebnis der Reisolierung (in KBE/ml)” value (S.epidermidis [5]; 8 h after inoculation) was less than 100 KBE/ml and the “Ergebnis der Reisolierung (in KBE/ml)” value (S.epidermidis [5]; 24 h after inoculation) was less than 100 KBE/ml. For the same molecule, the “Ergebnis der Reisolierung (in KBE/ml)” value (S.epidermidis [5]; 32 h after inoculation) was less than 100 KBE/ml, the “Ergebnis der Reisolierung (in KBE/ml)” value (S.epidermidis [5]; 48 h after inoculation) was less than 100 KBE/ml and the “Ergebnis der Reisolierung (in KBE/ml)” value (S.epidermidis [5]; 72 h after inoculation) was less than 100 KBE/ml. The “Ergebnis der Reisolierung qualitiativ (+/-) nach Anreicherung” value (“Ergebnis der Reisolierung qualitiativ” below) (E.coli [6]; 2 h after inoculation) was “-”, the “Ergebnis der Reisolierung qualitiativ” value (E.coli [6]; 4 h after inoculation) was “-” and the “Ergebnis der Reisolierung qualitiativ” value (E.coli [6]; 6 h after inoculation) was “-”. The “Ergebnis der Reisolierung qualitiativ” value (E.coli [6]; 8 h after inoculation) was “-”, the “Ergebnis der Reisolierung qualitiativ” value (E.coli [6]; 24 h after inoculation) was “-” and the “Ergebnis der Reisolierung qualitiativ” value (E.coli [6]; 32 h after inoculation) was “-”. For the same molecule, the “Ergebnis der Reisolierung qualitiativ” value (E.coli [6]; 48 h after inoculation) was “-”, the “Ergebnis der Reisolierung qualitiativ” value (E.coli [6]; 72 h after inoculation) was “-” and the “Ergebnis der Reisolierung qualitiativ” value (S.aureus [7]; 2 h after inoculation) was “-”. For the same molecule, the “Ergebnis der Reisolierung qualitiativ” value (S.aureus [7]; 4 h after inoculation) was “-”, the “Ergebnis der Reisolierung qualitiativ” value (S.aureus [7]; 6 h after inoculation) was “-” and the “Ergebnis der Reisolierung qualitiativ” value (S.aureus [7]; 8 h after inoculation) was “-”. For the same molecule, the “Ergebnis der Reisolierung qualitiativ” value (S.aureus [7]; 24 h after inoculation) was “-”, the “Ergebnis der Reisolierung qualitiativ” value (S.aureus [7]; 32 h after inoculation) was “-” and the “Ergebnis der Reisolierung qualitiativ” value (S.aureus [7]; 48 h after inoculation) was “-”. For the same molecule, the “Ergebnis der Reisolierung qualitiativ” value (S.aureus [7]; 72 h after inoculation) was “-”, the “Ergebnis der Reisolierung qualitiativ” value (S.epidermidis [8]; 2 h after inoculation) was “-” and the “Ergebnis der Reisolierung qualitiativ” value (S.epidermidis [8]; 4 h after inoculation) was “-”. The “Ergebnis der Reisolierung qualitiativ” value (S.epidermidis [8]; 6 h after inoculation) was “-”, the “Ergebnis der Reisolierung qualitiativ” value (S.epidermidis [8]; 8 h after inoculation) was “-” and the “Ergebnis der Reisolierung qualitiativ” value (S.epidermidis [8]; 24 h after inoculation) was “-”. For the same molecule, the “Ergebnis der Reisolierung qualitiativ” value (S.epidermidis [8]; 32 h after inoculation) was “-”, the “Ergebnis der Reisolierung qualitiativ” value (S.epidermidis [8]; 48 h after inoculation) was “-” and the “Ergebnis der Reisolierung qualitiativ” value (S.epidermidis [8]; 72 h after inoculation) was “-”. For the same molecule, the “Ergebnis der Reisolierung qualitiativ” value (Sc. pneumoniae [9]; 2 h after inoculation) was “-”, the “Ergebnis der Reisolierung qualitiativ” value (Sc. pneumoniae [9]; 4 h after inoculation) was “-” and the “Ergebnis der Reisolierung qualitiativ” value (Sc. pneumoniae [9]; 6 h after inoculation) was “-”. The “Ergebnis der Reisolierung qualitiativ” value (Sc. pneumoniae [9]; 8 h after inoculation) was “-”, the “Ergebnis der Reisolierung qualitiativ” value (Sc. pneumoniae [9]; 24 h after inoculation) was “-” and the “Ergebnis der Reisolierung qualitiativ” value (Sc. pneumoniae [9]; 32 h after inoculation) was “-”. The “Ergebnis der Reisolierung qualitiativ” value (Sc. pneumoniae [9]; 48 h after inoculation) was “-”, the “Ergebnis der Reisolierung qualitiativ” value (Sc. pneumoniae [9]; 72 h after inoculation) was “-” and the “Ergebnis der Reisolierung qualitiativ” value (P.aeruginosa [10]; 2 h after inoculation) was “-”. The “Ergebnis der Reisolierung qualitiativ” value (P.aeruginosa [10]; 4 h after inoculation) was “-”, the “Ergebnis der Reisolierung qualitiativ” value (P.aeruginosa [10]; 6 h after inoculation) was “-” and the “Ergebnis der Reisolierung qualitiativ” value (P.aeruginosa [10]; 8 h after inoculation) was “-”. The “Ergebnis der Reisolierung qualitiativ” value (P.aeruginosa [10]; 24 h after inoculation) was “-”, the “Ergebnis der Reisolierung qualitiativ” value (P.aeruginosa [10]; 32 h after inoculation) was “-” and the “Ergebnis der Reisolierung qualitiativ” value (P.aeruginosa [10]; 48 h after inoculation) was “-”. The “Ergebnis der Reisolierung qualitiativ” value (P.aeruginosa [10]; 72 h after inoculation) was “-”.
